Test results from article PMC4580987, “Catalytic site inhibition of insulin-degrading enzyme by a small molecule induces glucose intolerance in mice” (Nature Communications, 2015).
Where “and” joins values, the source holds several entries; their conditions need not be identical. Identical values can stand only once.

Experiments:
[1] = Pharmacokinetics in mice, intraperitoneal; format: in vivo; details: C57Bl6/N, mouse, plasma, 30 mg kg^−1, ip, male mice
Method: Three mice per time point were anesthetized with isoflurane and aliquots taken from the retroorbital sinus using sampling heparinated tubes (4 °C) at 10, 20, 30 min, 1, 2 and 4 h after administration of a single dose of ligands. The blood samples were centrifuged (5,000g, 15 min) for plasma separation. Plasma samples were thawed on ice. Aliquots of 50 μl were precipitated with 450 μl of ice-cold acetonitrile containing (R)-N-[3-(1-Hydroxycarbamoylmethyl-2-naphthalen-2-yl-ethyl)-3H-[1,2,3]triazol-4-ylmethyl]-benzamide (0.5 μM) used as internal standard. The samples were vigorously mixed with a vortex and centrifuged at 10,000 r.p.m. at 4 °C for 10 min, and the supernatants were transferred into tubes for LC−MS−MS analysis (Supplementary Table 2). Spiked standard solutions (10, 50, 100, 500, 1,000, 5,000, 10,000 and 50,000 nM) were prepared the same way. The protocol was approved by the ethical comitee CEEA Nord Pas de Calais (CEEA75).

hIDE [2] = target: T1, hIDE (Homo sapiens, UniProt P14735); test: Small-angle X-ray scattering (SAXS) of hIDE conformation
T1 construct: made in house
T1 sequence (P14735 1-1019): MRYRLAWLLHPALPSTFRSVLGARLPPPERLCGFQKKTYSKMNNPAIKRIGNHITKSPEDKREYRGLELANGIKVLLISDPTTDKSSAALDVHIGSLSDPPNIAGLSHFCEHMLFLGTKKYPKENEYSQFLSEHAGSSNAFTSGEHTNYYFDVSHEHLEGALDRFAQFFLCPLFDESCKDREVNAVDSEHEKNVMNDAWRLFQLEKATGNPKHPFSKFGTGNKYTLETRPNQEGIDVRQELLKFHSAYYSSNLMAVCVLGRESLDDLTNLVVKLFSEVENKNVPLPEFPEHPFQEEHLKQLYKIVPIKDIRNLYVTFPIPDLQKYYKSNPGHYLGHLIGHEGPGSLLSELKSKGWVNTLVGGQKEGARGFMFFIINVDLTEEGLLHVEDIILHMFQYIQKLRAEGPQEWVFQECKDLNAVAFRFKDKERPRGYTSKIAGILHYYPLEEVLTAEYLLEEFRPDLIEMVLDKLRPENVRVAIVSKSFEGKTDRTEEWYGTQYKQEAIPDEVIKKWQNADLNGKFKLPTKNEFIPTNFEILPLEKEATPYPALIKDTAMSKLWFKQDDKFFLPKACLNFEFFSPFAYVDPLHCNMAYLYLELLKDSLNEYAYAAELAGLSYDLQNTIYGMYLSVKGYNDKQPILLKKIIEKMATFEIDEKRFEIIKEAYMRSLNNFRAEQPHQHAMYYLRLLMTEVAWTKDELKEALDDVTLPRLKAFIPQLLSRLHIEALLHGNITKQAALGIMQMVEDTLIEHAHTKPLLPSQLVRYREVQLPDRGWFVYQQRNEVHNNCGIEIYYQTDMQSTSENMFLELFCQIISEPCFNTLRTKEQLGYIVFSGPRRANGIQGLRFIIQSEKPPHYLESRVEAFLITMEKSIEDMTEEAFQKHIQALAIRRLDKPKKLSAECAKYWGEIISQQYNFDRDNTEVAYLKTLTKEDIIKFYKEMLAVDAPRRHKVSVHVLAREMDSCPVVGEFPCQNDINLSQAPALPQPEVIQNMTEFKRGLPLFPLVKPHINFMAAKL
Method: SAXS data were collected at the APS 18-ID (BioCAT) with the Mar 165 CCD detector at room temperature (24 °C). The incident X-ray wavelength is 1.033 Å. hIDE was purified as described before. After 2 gel-filtration, hIDE was concentrated and dialysis against 20 mM Hepes, pH 7.2, 100 mM NaCl. […] The data reducing and all data processing were carried out using ATSAS. P(r) function was calculated with GNOM[44], and SAXS data fitting was performed with CRYSOL[45].

isolated mouse islets = details: 3 or 10 µM
Method: Digestion was stopped by addition of cold HBSS with 10% FCS. The islets were washed twice in HBSS with FCS and once in RPMI with FCS. […] The next day, the islets were incubated in fresh DMEM with 10% FCS without glucose for 90 min. Then glucose at 2.8 mM together with BDM44378 was added; after 1 h, the supernatant was removed and replaced by fresh medium with 28 mM glucose, followed by another 1-h incubation in the presence or absence of inhibitor.

hIDE [3] = target: T1, hIDE; test: In vitro hIDE inhibition of insulin hydrolysis; format: biochemical; details: substrate native insulin; means of two experiments minimum, s.d.±10%; read-out: Selectivity IC50 hIDE
Method: The enzymatic activity of hIDE was assayed quantifying the amount of insulin (Actrapid) at the end of the reaction. The quantity of insulin was determined using a Luminex kit (HMHMAG-34K, Millipore). 20 μl of WT IDE in Hepes buffer (50 mM with 100 mM NaCl, pH 7.4) at 1 μg ml^−1 were pre-incubated 10 min at ambient temperature with 20 μl of test compound or vehicle in 96-well microtiter plates (dark, non-binding surface). The reaction was then started by the addition of 40 μl of insulin at 40 nM. The final concentration of hIDE and substrate was 0.25 μg ml^−1 and 20 nM, respectively. Incubations were performed at ambient temperature for 10 min. The reaction was then stopped by addition of 80 μl of 200 mM EDTA. The samples were diluted by a factor of 3, and 15 μl were transferred to 96-well microtiter plates (dark, clear bottom, non-binding surface) containing 15 μl of assay buffer (from Luminex Kit). Fifteen microlitre of insulin magnetic beads were added. Incubation was performed during 16–18 h at 4 °C under agitation. Wells were washed three times and 30 μl of hormone panel antibodies were added. The samples were incubated 30 min at ambient temperature under agitation. 30 μl of strepdavidin-phycoerythrin were added. Incubation was performed 30 min at ambient temperature under agitation. Wells were washed three times and 80 μl of drive fluid were added. The plate was then read with the MagPix apparatus. Data analysis was performed using Xlfit v 5.0 and GraphPad Prism v 4.0. Nonlinear curve fitting and statistical analysis was done using equation 1: […]
where A is minimum value of y; B is range of y; C is the IC50 value and D is slope factor.

`O=C(C[C@@H](Cc1ccc2ccccc2c1)n1cc(CNC(=O)c2ccc(F)cc2)nn1)NO` [Compound 1] gave a Tmax [1] of 10 min, a half-life [1] of 80 min and an AUC(0-t) ([1]; read-out: AUC0→4h) of 4270 ng·h/mL. The Cmax ([1]; DMSO solution) was 4100 ng/mL and 9.2 µM, the “radius of gyration (Rg) of IDE with compound” value (hIDE [2]; 53.1 Å without compound) was 47.6 Å and the “Dmax of IDE with compound” value (hIDE [2]; 180 Å without compound) was 160 Å. The “fraction of IDE in the open conformation with compound” value (hIDE [2]; ∼63% open in the absence of compound, fit of SAXS profile) was about 16%, the “insulin in the supernatant of islets, Ide−/−” value (isolated mouse islets; islets from Ide−/− mice) was “did not respond” and the “insulin detectable in the supernatant of islets, wild-type” value (isolated mouse islets; islets from wild-type C57BL/6J mice, 2.8 and 28 mM glucose) was “increased, in a dose-dependent manner”. The IC50 (hIDE [3]) was 60 nM.
